According to the supplement of paper PMC10307832:

Legend:
Experiment in all cases: relative viability (nuclei count vs DMSO), 5 days (fraction); higher = more cells survive
201T = system: 201T
Summary of the method: (§1)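 Relative viability equals treated-well nuclei counts divided by vehicle-well nuclei counts. Counts came from 4× images of lung cancer cell lines grown in 1536-well plates for 5 days after pin-tool dosing on the day after seeding. Dosing used one drug alone or a fixed anchor-drug dose plus five library-drug doses (not always all listed) in √10 steps, and values are medians of duplicate plates.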

BEN = system: BEN
Summary of the method: as §1

COR-L 105 = system: COR-L 105
Summary of the method: as §1

EKVX = system: EKVX
Summary of the method: as §1

EPLC-272H = system: EPLC-272H
Summary of the method: as §1

H3255 = system: H3255
Summary of the method: as §1

HCC-44 = system: HCC-44
Summary of the method: as §1

HCC-827 = system: HCC-827
Summary of the method: as §1

HOP-62 = system: HOP-62
Summary of the method: as §1

LCLC-97TM1 = system: LCLC-97TM1
Summary of the method: as §1

LOU-NH91 = system: LOU-NH91
Summary of the method: as §1

LU99A = system: LU99A
Summary of the method: as §1

Compound: Clc1ccc(Nc2nnc(Cc3ccncc3)c3ccccc23)cc1 [Vatalanib] + C[C@]1(O)C[C@@H](c2nc(-c3ccc4ccc(-c5ccccc5)nc4c3)c3c(N)nccn32)C1 [Linsitinib] (partner 1 µM)
- relative viability (201T; first compound 0.04 µM): 1.02
- relative viability (201T; first compound 0.1265 µM): 1.04
- relative viability (201T; first compound 0.4 µM): 1.02
- relative viability (201T; first compound 1.265 µM): 0.985
- relative viability (201T; first compound 4 µM): 0.949
- relative viability (BEN; first compound 0.04 µM): 0.992
- relative viability (BEN; first compound 0.1265 µM): 0.785
- relative viability (BEN; first compound 0.4 µM): 0.99
- relative viability (BEN; first compound 1.265 µM): 0.943
- relative viability (BEN; first compound 4 µM): 0.97
- relative viability (COR-L 105; first compound 0.04 µM): 0.835
- relative viability (COR-L 105; first compound 0.1265 µM): 0.87
- relative viability (COR-L 105; first compound 0.4 µM): 1.12
- relative viability (COR-L 105; first compound 1.265 µM): 0.772
- relative viability (COR-L 105; first compound 4 µM): 0.941
- relative viability (EKVX; first compound 0.04 µM): 1.03
- relative viability (EKVX; first compound 0.1265 µM): 0.89
- relative viability (EKVX; first compound 0.4 µM): 0.941
- relative viability (EKVX; first compound 1.265 µM): 0.814
- relative viability (EKVX; first compound 4 µM): 0.776
- relative viability (EPLC-272H; first compound 0.04 µM): 1.2
- relative viability (EPLC-272H; first compound 0.1265 µM): 1.19
- relative viability (EPLC-272H; first compound 0.4 µM): 1.27
- relative viability (EPLC-272H; first compound 1.265 µM): 1.18
- relative viability (EPLC-272H; first compound 4 µM): 1.31
- relative viability (H3255; first compound 0.04 µM): 0.984
- relative viability (H3255; first compound 0.1265 µM): 0.902
- relative viability (H3255; first compound 0.4 µM): 0.702
- relative viability (H3255; first compound 1.265 µM): 0.932
- relative viability (H3255; first compound 4 µM): 0.921
- relative viability (HCC-44; first compound 0.04 µM): 0.683
- relative viability (HCC-44; first compound 0.1265 µM): 0.643
- relative viability (HCC-44; first compound 0.4 µM): 0.676
- relative viability (HCC-44; first compound 1.265 µM): 0.636
- relative viability (HCC-44; first compound 4 µM): 0.679
- relative viability (HCC-827; first compound 0.04 µM): 0.992
- relative viability (HCC-827; first compound 0.1265 µM): 0.925
- relative viability (HCC-827; first compound 0.4 µM): 0.95
- relative viability (HCC-827; first compound 1.265 µM): 0.936
- relative viability (HCC-827; first compound 4 µM): 0.905
- relative viability (HOP-62; first compound 0.04 µM): 0.785
- relative viability (HOP-62; first compound 0.4 µM): 1.02
- relative viability (HOP-62; first compound 1.265 µM): 0.922
- relative viability (HOP-62; first compound 4 µM): 0.876
- relative viability (LCLC-97TM1; first compound 0.04 µM): 0.183
- relative viability (LCLC-97TM1; first compound 0.1265 µM): 0.17
- relative viability (LCLC-97TM1; first compound 0.4 µM): 0.189
- relative viability (LCLC-97TM1; first compound 1.265 µM): 0.159
- relative viability (LCLC-97TM1; first compound 4 µM): 0.179
- relative viability (LOU-NH91; first compound 0.04 µM): 1.02
- relative viability (LOU-NH91; first compound 0.1265 µM): 0.921
- relative viability (LOU-NH91; first compound 0.4 µM): 0.757
- relative viability (LOU-NH91; first compound 1.265 µM): 0.913
- relative viability (LOU-NH91; first compound 4 µM): 0.89
- relative viability (LU99A; first compound 0.04 µM): 0.545
- relative viability (LU99A; first compound 0.1265 µM): 0.585
- relative viability (LU99A; first compound 0.4 µM): 0.558
